Assay results published in patent publication US8207177B2, “Inhibitors of E1 activating enzymes” (Millennium Pharmaceuticals, Inc., priority 2006, dated 2012).

Molecular target: T1, recombinant human NAE enzyme (Homo sapiens, UniProt Q8TBC4)
T1 construct: His (N); made in house; host or cells: Sf9 insect cells (baculovirus, Bac-to-Bac), purified on Ni-NTA
T1 sequence (Q8TBC4 1-463): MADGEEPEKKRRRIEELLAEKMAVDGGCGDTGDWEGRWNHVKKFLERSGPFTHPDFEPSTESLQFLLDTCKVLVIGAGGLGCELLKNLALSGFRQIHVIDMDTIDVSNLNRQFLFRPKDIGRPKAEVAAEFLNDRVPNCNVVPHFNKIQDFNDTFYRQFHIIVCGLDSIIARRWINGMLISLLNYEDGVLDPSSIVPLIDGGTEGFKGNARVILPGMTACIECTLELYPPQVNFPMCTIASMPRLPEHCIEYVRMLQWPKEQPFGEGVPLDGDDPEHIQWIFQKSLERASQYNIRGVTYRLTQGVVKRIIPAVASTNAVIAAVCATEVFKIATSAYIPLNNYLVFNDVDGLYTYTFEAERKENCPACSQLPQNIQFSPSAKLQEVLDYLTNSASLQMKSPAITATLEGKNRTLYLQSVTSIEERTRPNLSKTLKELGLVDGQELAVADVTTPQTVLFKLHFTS
T1 sequence (Q13564 1-534 partner): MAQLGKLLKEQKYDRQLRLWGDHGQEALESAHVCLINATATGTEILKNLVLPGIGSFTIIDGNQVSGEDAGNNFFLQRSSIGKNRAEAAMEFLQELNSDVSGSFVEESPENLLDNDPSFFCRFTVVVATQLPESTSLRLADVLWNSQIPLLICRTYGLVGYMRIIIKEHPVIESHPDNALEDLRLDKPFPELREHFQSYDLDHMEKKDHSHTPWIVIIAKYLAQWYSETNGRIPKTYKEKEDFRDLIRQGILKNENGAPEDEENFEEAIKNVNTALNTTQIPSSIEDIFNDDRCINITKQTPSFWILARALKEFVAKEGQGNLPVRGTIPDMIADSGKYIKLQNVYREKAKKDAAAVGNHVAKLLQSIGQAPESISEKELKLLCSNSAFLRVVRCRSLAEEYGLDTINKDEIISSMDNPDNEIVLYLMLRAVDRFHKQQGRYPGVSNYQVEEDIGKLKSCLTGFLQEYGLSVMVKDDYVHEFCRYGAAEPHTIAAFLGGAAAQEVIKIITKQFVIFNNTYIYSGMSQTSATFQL
Experiment: Nedd8-Activating Enzyme (NAE) HTRF Assay
Type: biochemical
Conditions: threshold statement: less than or equal to 100 nM; 20 μM ATP, 90 minutes at 24° C.
How it was run: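 Sf9-expressed NAEα/His-NAEβ complex (0.28 nM) with 0.075 μM Nedd8-Flag, 0.01 μM Ubc12-GST, 20 μM ATP in 50 mM HEPES pH 7.5, 5 mM MgCl2, 250 μM GSH, 0.05% BSA; 90 min at 24 °C. EDTA stop, then Eu-cryptate anti-FLAG/XL-APC anti-GST detection for 3 h at 24 °C, HTRF read-out.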

SMILES | IC50
Cc1cc(CNc2ncnc3c2ccn3[C@@H]2C[C@@H](COS(N)(=O)=O)[C@@H](O)C2)no1 [Compound I-41, [(1S,2S,4R)-2-hydroxy-4-(4-{[(5-methylisoxazol-3-yl)methyl]amino}-7H-pyrrolo-[2,3-d]pyrimidin-7-yl)cyclopentyl]methyl sulfamate] | ≤ 100 nM
NS(=O)(=O)OC[C@@H]1C[C@@H](n2ccc3c(N[C@H]4CCc5c(F)cccc54)ncnc32)C[C@@H]1O [Compound I-61, [(1S,2S,4R)-4-(4-{[(1S)-4-fluoro-2,3-dihydro-1H-inden-1-yl]amino}-7H-pyrrolo[2,3-d]pyrimidin-7-yl)-2-hydroxycyclopentyl]methyl sulfamate] | ≤ 100 nM
NS(=O)(=O)/C=C/[C@@H]1C[C@@H](n2ccc3c(N[C@H]4CCc5ccccc54)ncnc32)C[C@@H]1O [Compound I-73, (E)-2-((1S,2S,4R)-4-{4-[(1S)-2,3-dihydro-1H-inden-1-ylamino]-7H-pyrrolo[2,3-d]pyrimidin-7-yl}-2-hydroxycyclopentyl)ethylenesulfonamide] | ≤ 100 nM
NS(=O)(=O)OC[C@@H]1C[C@@H](n2ccc3c(N[C@H]4CCc5ccccc54)ncnc32)[C@H](O)[C@@H]1O [Compound I-17, ((1S,2R,3S,4R)-4-{4-[(1S)-2,3-dihydro-1H-inden-1-ylamino]-7H-pyrrolo[2,3-d]-pyrimidin-7-yl}-2,3-dihydroxycyclopentyl)methyl sulfamate] | ≤ 100 nM
NS(=O)(=O)OC[C@@H]1C[C@@H](n2ccc3c(N[C@H]4CCc5cccc(F)c54)ncnc32)C[C@@H]1O [Compound I-66, [(1S,2S,4R)-4-(4-{[(1S)-7-fluoro-2,3-dihydro-1H-inden-1-yl]amino}-7H-pyrrolo[2,3-d]pyrimidin-7-yl)-2-hydroxycyclopentyl]methyl sulfamate] | ≤ 100 nM
NS(=O)(=O)OC[C@@H]1C[C@@H](n2cc(F)c3c(NCc4ccccc4)ncnc32)C[C@@H]1O [Compound I-31, {(1S,2S,4R)-4-[4-(benzylamino)-5-fluoro-7H-pyrrolo[2,3-d]pyrimidin-7-yl]-2-hydroxycyclopentyl}methyl sulfamate] | ≤ 100 nM

Results, then the compound that gave them:

IC50 | SMILES
≤ 100 nM | NS(=O)(=O)OC[C@@H]1C[C@@H](n2ccc3c(N[C@H]4CCc5cc(Br)ccc54)ncnc32)C[C@@H]1O [Compound I-33, [(1S,2S,4R)-4-(4-{[(1S)-5-bromo-2,3-dihydro-1H-inden-1-yl]amino}-7H-pyrrolo-[2,3-d]pyrimidin-7-yl)-2-hydroxycyclopentyl]methyl sulfamate]
≤ 100 nM | CC1(C)C[C@H](Nc2ncnc3c2ccn3[C@@H]2C[C@@H](COS(N)(=O)=O)[C@@H](O)C2)c2ccccc21 (single isomer, unassigned) [Compound I-14]
≤ 100 nM | NS(=O)(=O)OC[C@@H]1C[C@@H](n2ccc3c(N[C@H]4CCCc5ccccc54)ncnc32)C[C@@H]1O [Compound I-37, ((1S,2S,4R)-2-hydroxy-4-{4-[(1S)-1,2,3,4-tetrahydronaphthalen-1-ylamino]-7H-pyrrolo[2,3-d]pyrimidin-7-yl}cyclopentyl)methyl sulfamate]
≤ 100 nM | NS(=O)(=O)OC[C@@H]1C[C@@H](n2ccc3c(NCC4CC4)ncnc32)C[C@@H]1O [Compound I-25, ((1S,2S,4R)-4-{4-[(cyclopropylmethyl)amino]-7H-pyrrolo[2,3-d]pyrimidin-7-yl}-2-hydroxycyclopentyl)methyl sulfamate]
